Results from patent publication US12409171B2, “Pharmaceutically active pyrazolo-pyridone modulators of DCN1/2-mediated cullin neddylation” (UNIVERSITY OF KENTUCKY RESEARCH FOUNDATION, priority 2019, dated 2025).

The molecules below were run against DCN1 (Homo sapiens (Human), UniProt Q96GG9) (assay: TR-FRET binding assay (biotin-DCN1 / Ac-UBE2M12-AlexaFluor488)). Conditions: mean ± SD (n); read-out: DCN1_TRFRET Mean EC50.
Description: • IC50 values were generated using our TR-FRET binding assay and are represented as the mean of three replicates with errors reported as the standard deviation.
The assay cocktail was then incubated for 1 h at room temperature and distributed using a WellMate instrument (Matrix). Compounds to be screened were added to assay plates from DMSO stock solutions by pin transfer using 50SS pins (V&P Scientific). […] All compounds were tested in triplicate or more.

DCN1, sequence (Q96GG9 whole entry): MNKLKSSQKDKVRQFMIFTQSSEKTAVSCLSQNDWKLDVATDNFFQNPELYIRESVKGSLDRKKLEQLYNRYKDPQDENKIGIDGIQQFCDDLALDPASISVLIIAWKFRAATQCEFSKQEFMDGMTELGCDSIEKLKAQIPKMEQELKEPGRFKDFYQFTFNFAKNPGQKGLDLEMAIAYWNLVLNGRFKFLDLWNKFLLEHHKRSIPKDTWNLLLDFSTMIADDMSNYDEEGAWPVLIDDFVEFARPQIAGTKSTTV

SMILES	EC50
CCN1C(=O)[C@@H](NC(=O)c2cccc(C(F)(F)F)c2)[C@@H](c2ccc(F)cc2)c2c(CN3CCN(CC(F)(F)F)CC3)nn(-c3ccccc3)c21 [RG-0014150, N-[(4S,5S)-7-ethyl-4-(4-fluorophenyl)-6-oxo-1-phenyl-3-{[4-(2,2,2-trifluoroethyl)piperazin-1-yl]methyl}-1H,4H,5H,6H,7H-pyrazolo[3,4-b]pyridin-5-yl]-3-(trifluoromethyl)benzamide]	0.173 ± 0.0219 µM
CCN1C(=O)[C@@H](NC(=O)c2cccc(C)c2)[C@@H](c2ccc(F)cc2)c2c(C)nn(C3CC3)c21 [RG-0008872, N-[(4S,5S)-1-cyclopropyl-7-ethyl-4-(4-fluorophenyl)-3-methyl-6-oxo-1H,4H,5H,6H,7H-pyrazolo[3,4-b]pyridin-5-yl]-3-methylbenzamide]	0.19 ± 0.0356 µM
CCCN1C(=O)[C@@H](NC(=O)c2cccc(C)c2)[C@@H](c2ccc(F)cc2)c2c(C)nn(CCC)c21 [RG-0008666, N-[(4S,5S)-4-(4-fluorophenyl)-3-methyl-6-oxo-1,7-dipropyl-1H,4H,5H,6H,7H-pyrazolo[3,4-b]pyridin-5-yl]-3-methylbenzamide]	1.17 ± 0.0993 µM
CCN1C(=O)[C@@H](NC(=O)c2cccc(C)c2)[C@@H](c2ccc(F)cc2)c2c(C)nn(C(C)C(F)(F)F)c21 (stereo partly drawn) [RG-0008879, N-[(4S,5S)-7-ethyl-4-(4-fluorophenyl)-3-methyl-6-oxo-1-(1,1,1-trifluoropropan-2-yl)-1H,4H,5H,6H,7H-pyrazolo[3,4-b]pyridin-5-yl]-3-methylbenzamide]	7.26 ± 1.09 µM
CCN1C(=O)[C@@H](NC(=O)c2cccc(C(F)(F)F)c2)[C@@H](c2ccc(F)cc2)c2c(CNC(=O)CCOCCOCCOCCOCCNC(=O)CCCCC3SCC4NC(=O)NC43)nn(-c3ccccc3)c21 (stereo partly drawn) [RG-0014148, N-{[(4S,5S)-7-ethyl-4-(4-fluorophenyl)-6-oxo-1-phenyl-5-[3-(trifluoromethyl)benzamido]-1H,4H,5H,6H,7H-pyrazolo[3,4-b]pyridin-3-yl]methyl}-1-(5-{2-oxo-hexahydro-1H-thieno[3,4-d]imidazol-4-yl}pentanamido)-3,6,9,12-tetraoxapentadecan-15-amide]	0.102 ± 0.0159 µM
CCN1C(=O)[C@@H](NC(=O)c2cccc(C(F)(F)F)c2)[C@@H](c2ccc(F)c(C(F)(F)F)c2)c2c(C)nn(-c3ccccc3)c21 [RG-0013990, N-[(4S,5S)-7-ethyl-4-[4-fluoro-3-(trifluoromethyl)phenyl]-3-methyl-6-oxo-1-phenyl-1H,4H,5H,6H,7H-pyrazolo[3,4-b]pyridin-5-yl]-3-(trifluoromethyl)benzamide]	4.81 ± 0.152 µM
CC(=O)CN1C(=O)[C@@H](NC(=O)c2cccc(C)c2)[C@@H](c2ccc(F)cc2)c2c(C)nn(-c3ccccc3)c21 [RG-0009508, N-[(4S,5S)-4-(4-fluorophenyl)-3-methyl-6-oxo-7-(2-oxopropyl)-1-phenyl-1H,4H,5H,6H,7H-pyrazolo[3,4-b]pyridin-5-yl]-3-methylbenzamide]	7.05 ± 1.67 µM
CCN1C(=O)[C@@H](NC(=O)c2cccc(C(F)(F)F)n2)[C@@H](c2ccc(F)cc2)c2c(C)nn(-c3ccccc3)c21 [RG-0014061, N-[(4S,5S)-7-ethyl-4-(4-fluorophenyl)-3-methyl-6-oxo-1-phenyl-1H,4H,5H,6H,7H-pyrazolo[3,4-b]pyridin-5-yl]-6-(trifluoromethyl)pyridine-2-carboxamide]	1.11 ± 0.13 µM
CCN1C(=O)[C@@H](NC(=O)c2cccc(C)c2F)[C@@H](c2ccc(F)cc2)c2c(C)nn(-c3ccccc3)c21 [RG-0014165, N-[(4S,5S)-7-ethyl-4-(4-fluorophenyl)-3-methyl-6-oxo-1-phenyl-1H,4H,5H,6H,7H-pyrazolo[3,4-b]pyridin-5-yl]-2-fluoro-3-methylbenzamide]	0.541 ± 0.0681 µM
CCN1C(=O)[C@@H](NS(=O)(=O)c2cccc(C(F)(F)F)c2)[C@@H](c2ccc(F)cc2)c2c(C)nn(-c3ccccc3)c21 [RG-0013808, N-[(4S,5S)-7-ethyl-4-(4-fluorophenyl)-3-methyl-6-oxo-1-phenyl-1H,4H,5H,6H,7H-pyrazolo[3,4-b]pyridin-5-yl]-3-(trifluoromethyl)benzene-1-sulfonamide]	> 36.5 µM
